Results taken from ChEMBL document CHEMBL1201862, “PubChem BioAssay data set” (2004).
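All cell lines were grown in 96-well plates and treated with compound for 48 hours. GI50: concentration for 50% inhibition of growth.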 Active and inactive are the calls of the source. Rule as the data show it: active = GI50 up to about 1.1 µM and inactive = higher.

Assays:
Experiment in all cases: NCI tumour cell line growth inhibition, 48 h
[1] = tested on: EKVX
[2] = tested on: HCT-116
[3] = tested on: HOP-62
[4] = tested on: K562
[5] = tested on: M14
[6] = tested on: MOLT-4
[7] = tested on: Malme-3M
[8] = tested on: NCI-H23
[9] = tested on: NCI-H522
[10] = tested on: OVCAR-4
[11] = tested on: OVCAR-5
[12] = tested on: SF-268
[13] = tested on: SF-295
[14] = tested on: SK-MEL-28
[15] = tested on: SN12C
[16] = tested on: SNB-19
[17] = tested on: SW-620
[18] = tested on: UACC-257
[19] = tested on: SF-539
[20] = tested on: SNB-75

Measured: GI50

COc1ccc(CCCC(=O)O)c(C)c1
inactive: [1] > 100 µM | [2] > 100 µM | [3] 26.4 µM | [4] 39.3 µM | [5] 92.9 µM | [6] 15.7 µM | [7] 27.2 µM | [8] 53.3 µM | [9] 36.8 µM | [10] 48.2 µM | [11] > 100 µM | [12] 27.4 µM | [13] 38.8 µM | [14] 91.4 µM | [15] 32 µM | [16] 40.1 µM | [17] 59.2 µM | [18] 73.5 µM

O=C(O)C(CCc1ccccc1)N1C(=O)c2ccccc2C1=O (stereo not drawn)
inactive: [1] > 100 µM | [2] > 100 µM | [3] > 100 µM | [4] > 100 µM | [5] > 100 µM | [6] > 100 µM | [8] > 100 µM | [10] > 100 µM | [11] > 100 µM | [13] > 100 µM | [19] > 100 µM | [14] > 100 µM | [15] > 100 µM | [16] > 100 µM | [20] > 100 µM | [17] > 100 µM | [18] > 100 µM

CCOc1cc(/C=N\O)cc(/C=N/O)c1O
inactive: [1] 33.3 µM | [2] 38.5 µM | [3] 37.1 µM | [4] 61.5 µM | [5] 44 µM | [6] 29.1 µM | [7] 37.2 µM | [8] 30 µM | [10] 42.6 µM | [11] 50.6 µM | [12] 22.6 µM | [13] 38.3 µM | [19] 24 µM | [14] 22.8 µM | [15] 51.6 µM | [16] 39.2 µM | [20] 23.1 µM | [17] 34.6 µM | [18] 47.2 µM

COc1ccccc1NC(=O)/C(=C/c1ccccc1)C(C)=O
inactive: [1] 45.4 µM | [2] 43.3 µM | [3] 59.4 µM | [4] 27.6 µM | [5] 25.2 µM | [6] 30.1 µM | [7] 27.7 µM | [8] 19.1 µM | [9] 25.5 µM | [10] 64.4 µM | [11] > 100 µM | [12] 38.4 µM | [13] 27.5 µM | [19] 23.6 µM | [14] 62.4 µM | [15] 42.2 µM | [16] 47.3 µM | [17] 36.9 µM | [18] 47 µM

COc1ccc(NC(=O)CC/C(CC(=O)c2ccccc2Cl)=N\Nc2nnc(C)n2N)cc1
inactive: [1] > 100 µM | [2] > 100 µM | [4] 61.9 µM | [6] > 100 µM | [7] > 100 µM | [8] > 100 µM | [10] > 100 µM | [11] > 100 µM | [12] > 100 µM | [13] > 100 µM | [19] > 100 µM | [14] > 100 µM | [15] > 100 µM | [16] > 100 µM | [17] > 100 µM | [18] > 100 µM

C=CCNC(=S)N/N=C1\C(=O)Nc2ccc([N+](=O)[O-])cc21
inactive: [1] 42.2 µM | [2] 24.8 µM | [3] > 100 µM | [4] 32.1 µM | [5] 62.1 µM | [6] 16.7 µM | [7] > 100 µM | [8] 38.6 µM | [9] 64.1 µM | [10] 41.4 µM | [11] > 100 µM | [12] 57 µM | [13] 29 µM | [19] > 100 µM | [14] > 100 µM | [15] 35.5 µM | [16] 55.7 µM | [17] 82 µM | [18] 71 µM

Cc1cn(Cc2cnnn2CC2OC(n3cc(C)c(=O)[nH]c3=O)CC2O)c(=O)[nH]c1=O (stereo not drawn)
inactive: [1] > 100 µM | [2] > 100 µM | [3] > 100 µM | [5] > 100 µM | [6] > 100 µM | [7] > 100 µM | [8] > 100 µM | [10] > 100 µM | [11] > 100 µM | [12] > 100 µM | [13] > 100 µM | [19] > 100 µM | [14] > 100 µM | [15] > 100 µM | [16] > 100 µM | [17] > 100 µM | [18] > 100 µM

COc1nc2[nH]ccc2c(=O)[nH]1
inactive: [1] > 100 µM | [2] > 100 µM | [4] > 100 µM | [5] > 100 µM | [6] > 100 µM | [7] > 100 µM | [8] > 100 µM | [10] > 100 µM | [11] > 100 µM | [12] > 100 µM | [13] > 100 µM | [19] > 100 µM | [14] > 100 µM | [15] > 100 µM | [16] > 100 µM | [20] > 100 µM | [17] > 100 µM | [18] > 100 µM
